Data set [1] can be described thus: Hemolysis assay. The settings on record: human, washed human red blood cells (RBC suspension), pH 7.2, 24 h, 37 °C, free chrysin solution in DMSO (5%), read-out: Percentage of Hemolysis. It counts as cell-based, human. On the procedure:
(§1) Human blood samples were freshly collected from ten healthy volunteers and divided into tubes containing the anticoagulant agent ethylenediamine tetraacetic acid (EDTA), according to the protocols approved by the National Institute of Health and the Food and Drug Administration.
(§2) The hemocompatibility of free chrysin and the produced micro-formulations was evaluated via the hemolysis assay performed using a biochemical analyzer Konelab 30, Thermo Scientific. The experimental procedure was as follows: Whole blood samples were centrifuged for 10 min at 1500 rpm to remove plasma. The obtained cell pellets were washed three times with sterile PBS (10 mM, pH 7.2) to separate the red blood cells (RBCs) from other blood components, such as the white blood cells, plasma proteins, and excess antibodies, centrifuged and finally re-suspended at 5 mL PBS. The hemolysis assay was performed by adding 100 µL of the RBC suspension to 900 µL of PBS, containing several concentrations (5, 20, 40, 60, 80, 100, 200, 300, 400, 500 µg·mL^−1) of free chrysin, ChrPCL/PVAMCs, or ChrPHB/PVAMCs. The positive (+) control sample of hemolysis used (100% hemolysis) consisted of 900 µL of ultrapure water and 100 µL of washed RBCs. The negative (−) control sample (0% hemolysis) consisted of 900 µL PBS and 100 µL of washed RBCs. PBS and PBS containing either free chrysin, ChrPCL/PVAMCs, or ChrPHB/PVAMCs were used as blank samples. All samples were incubated for 24 h at 37 °C, under agitation at 120 rpm. After incubation, they were centrifuged at 700 rpm for 5 min, and the absorbance of the supernatant was measured at 541 nm. The % hemolysis was calculated after subtracting the blank values, and by setting the control (+) value as 100% of hemolysis. The absorbance was transformed to hemolysis percentage using the following equation: Percentage of hemolysis (%)=ODSample − ODNegative control/ODPositive control − ODNegative control where OD stands for Optical density.

Data set [2] relates to human RBCs. The data set can be described thus: Hemolysis assay. It counts as cell-based. The method, then:
as §1, §2

The test system of data set [3] is human blood samples. The experiment in a line: Blood profile analysis (hematological parameters). The class given is cell-based. As to conditions: human blood, 5, 80 and 200 µg·mL^−1, 37 °C, 1 h. On the procedure:
as §1
The blood profile analysis was performed using an automatic hematological analyzer Beckman Coulter ACT 5 Diff OV, (Beckman Coulter International S.A., Nyon, Switzerland) for the determination of different hematological parameters, such as red blood cells (RBCs) count ([…]), hemoglobin (HGB) g·dL^−1), hematocrit (HCT) (%), mean corpuscular volume (MCV) (in femtoliters, fl), mean corpuscular hemoglobin (MCH) (pg), mean corpuscular hemoglobin concentration (MCHC), red cell distribution width (RDW), white blood cells (WBCs) (10^9/L), neutrophils (NE) (%), lymphocytes (LY) (%), monocytes (MO) (%), eosinophils (EO) (%), basophils (BA) (%), and platelets (PLTs) (10^9/L), after exposure to free chrysin, ChrPCL/PVAMCs, or ChrPHB/PVAMCs, and without exposure to any agent. Briefly, the sample preparation was performed as follows: A 100 µL sample of whole blood was added to 900 µL of PBS. Then, either chrysin, ChrPCL/PVAMCs, or ChrPHB/PVAMCs were added to this diluted blood to achieve three concentrations: low, high, and very high (5, 80, and 200 µg·mL^−1, respectively). […]

Data set [4] has as its system MDA-MB-231 human breast cancer cells. The data set can be described thus: MTT cell viability assay. The class given is cell-based. The settings on record: MDA-MB-231, 48 h, for MCs expressed as encapsulated chrysin content, read-out: IC50 (inhibitory concentration of chrysin for 50% viability). The method, then:
Epithelial human breast cancer MDA-MB-231 cells were grown in Dulbecco’s Modified Eagle′s—Medium (DMEM) growth medium (pH 7.4) supplemented with 10% Fetal Bovine Serum (FBS) and 50 µg·mL^−1 gentamycin at 37 °C in a 5% humidified CO2 incubator.
In the present study, the cell viability of MDA-MB-231 breast cancer line was evaluated via the MTT assay. The method relies on the conversion of the yellow 3-(4,5-dimethylthiazol-2-yl)-2,5-diphenyl tetrazolium bromide (MTT) to purple formazan crystals. The reduction of MTT is catalyzed by the mitochondrial dehydrogenase enzyme and is therefore a measure for cell viability. MDA-MB-231 cells were exposed to free chrysin, ChrPCL/PVAMCs, or ChrPHB/PVAMCs in their exponential phase of growth. More specifically, in a 96-well plate (Corning, NY, USA), a number of 1 × 10^4 cells/well were seeded, and after 24 h (80% confluency) they were treated with different concentrations of ChrPCL/PVAMCs or ChrPHB/PVAMCs ranging between 0–400 µg·mL^−1. Due to the different loading capacity of chrysin in each type of MCs, free chrysin (dissolved in DMSO) was added accordingly, in equal concentrations (µM), with the encapsulated chrysin in the MCs, as estimated in Section 3.5. […] Finally, a Synergy HTX BioTEK plate reader (with a reference wavelength of 630 nm) was used to determine the absorbance measurement at 545 nm. […]
(In general: Formazan colour is commonly taken as a measure of viable cells.)

Consider `O=c1cc(-c2ccccc2)oc2cc(O)cc(O)c12` [chrysin, 5,7-dihydroxyflavone], for which, in data set [1] (5 µg·mL^−1), the hemolysis at 24 h, 5 µg·mL^−1 turned out to be 1.2%. The hemolysis at 24 h, 20 µg·mL^−1 in data set [1] (20 µg·mL^−1) was found to be 2.1%. Also, the hemolysis at 24 h, 40 µg·mL^−1 in data set [1] (40 µg·mL^−1) was determined as 2.7%. The hemolysis at 24 h, 60 µg·mL^−1 in data set [1] (60 µg·mL^−1) stood at 3%. For the same compound, in data set [1] (80 µg·mL^−1), the hemolysis at 24 h, 80 µg·mL^−1 is 3.5%. The hemolysis at 24 h, 100 µg·mL^−1 in data set [1] (100 µg·mL^−1) stood at 6.8%. For the same compound, the hemolysis at 24 h, 200 µg·mL^−1 in data set [1] (200 µg·mL^−1) came to 7%. Further, in data set [1] (300 µg·mL^−1), the hemolysis at 24 h, 300 µg·mL^−1 worked out at 7.3%. Also, the hemolysis at 24 h, 400 µg·mL^−1 in data set [1] (400 µg·mL^−1) was 7.9%. For the same compound, in data set [1] (500 µg·mL^−1), the hemolysis at 24 h, 500 µg·mL^−1 turned out to be 8.2%. Further, the “hemoglobin release from RBCs (micrographs)” value in data set [2] (500 µg·mL^−1) is listed as “hemoglobin release from RBCs is obvious”. Also, the hemolytic activity result in data set [2] (concentrations between 100 and 500 µg·mL^−1, diluted in 5% DMSO) was “greater than 5%”. In data set [3], the “PLT values compared to negative control” value is on record as “significant decrease” and the “hematological parameters (RBCs, HGB, HCT, MCV, MCH, MCHC, RDW, WBCs, NE, LY, MO, EO, BA) compared to negative control” value was “did not display significant deviation”. In data set [4], the IC50 is 112 µM.

Source of the values: PMC7831015, “Evaluation of the Hemocompatibility and Anticancer Potential of Poly(ε-Caprolactone) and Poly(3-Hydroxybutyrate) Microcarriers with Encapsulated Chrysin” (Pharmaceutics, 2021).
